Assay results from US20070203244A1, “INHIBITORS OF MEMBRANE TYPE-1 MATRIX METALLOPROTEINASE FOR THE TREATMENT OF INSULIN-DEPENDENT DIABETES MELLITUS” (priority 2006, published 2007).

Tests used:
[1] = molecular target: cell surface-associated CD44 of IS-CD8+ T cells (UniProt P15379)
[2] = molecular target: T1, MMP-7 (Homo sapiens, UniProt P09237); details: read-out: EC50 against MMP-7; cited from earlier work
T1 sequence (P09237 95-267): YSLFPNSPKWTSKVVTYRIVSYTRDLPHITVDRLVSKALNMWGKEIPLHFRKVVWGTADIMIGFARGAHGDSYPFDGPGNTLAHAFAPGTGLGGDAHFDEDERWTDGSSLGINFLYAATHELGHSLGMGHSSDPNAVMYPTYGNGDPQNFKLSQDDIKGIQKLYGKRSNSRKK

[3] = tested on: Zucker diabetic fatty rats; details: cited from earlier work
[4] = molecular target: T2, MMP-9 (Homo sapiens, UniProt P14780); details: read-out: EC50 against MMP-9; cited from earlier work
[5] = tested on: MT1-MMP; details: read-out: EC50 against MT1-MMP; cited from earlier work
[6] = molecular target: T2, MMP-9; details: cited from earlier work
[7] = cited from earlier work
[8] = molecular target: T3, MMP-2 (Homo sapiens, UniProt P08253); details: cited from earlier work
T3 sequence (P08253 110-660): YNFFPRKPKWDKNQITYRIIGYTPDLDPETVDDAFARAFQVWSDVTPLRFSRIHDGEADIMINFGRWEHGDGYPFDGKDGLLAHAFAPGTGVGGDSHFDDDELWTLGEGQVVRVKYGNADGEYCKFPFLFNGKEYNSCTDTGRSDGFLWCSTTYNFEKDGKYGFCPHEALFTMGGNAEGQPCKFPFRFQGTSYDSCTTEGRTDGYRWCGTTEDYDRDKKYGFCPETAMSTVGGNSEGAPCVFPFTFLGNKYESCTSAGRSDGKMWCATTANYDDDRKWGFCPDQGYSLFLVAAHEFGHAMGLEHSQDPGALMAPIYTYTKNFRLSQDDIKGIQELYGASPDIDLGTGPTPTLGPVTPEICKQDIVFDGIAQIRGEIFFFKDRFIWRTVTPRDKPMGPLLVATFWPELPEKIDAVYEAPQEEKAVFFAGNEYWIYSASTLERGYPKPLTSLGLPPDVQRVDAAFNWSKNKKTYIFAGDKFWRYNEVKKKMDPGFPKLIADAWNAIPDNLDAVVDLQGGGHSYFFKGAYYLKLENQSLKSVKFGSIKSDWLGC

[9] = tested on: CD44; assay: Cleavage of cellular CD44 by external MT1-MMP-CAT in IS-CD8+ cells (FACS, Western blotting); format: cell-based, NOD mouse; details: GM6001 50 μM added to cells co-incubated with MT1-MMP-CAT
Procedure: Treatment of Cells with MT1-MMP-CAT—The catalytic domain of MT1-MMP (MT1-MMP-CAT; 3 μg) was co-incubated for 2 h at 37° C. with IS-CD8^+ cells (1×10^7 cells) in 0.2 ml of 50 mM HEPES, 10 Mm CaCl2, 0.5 mM MgCl2, 50 μM ZnCl2, and 0.01% Brij-35 buffer, pH 6.8. Where indicated, GM6001 (50 μM; Chemicon, Temecula, Calif.) was added to the samples. Following treatment, the cells were injected into the irradiated mice or used for DiI labeling, Western blotting, FACS analysis, and other analytical procedures (Savinov, A. Y., et al. (2003); Deryugina, E. I., et al. (2001); Rozanov, D. V., et al. (2001)).
Western Blotting—IS-CD8^+ cells were surface biotinylated for 1 h at 4° C. with 0.1 mg/ml sulfo-NHS-LC-biotin (Pierce, Rockford, Ill.). Following washes to remove biotin, cells were co-incubated for 2 h with MT1-MMP-CAT in serum-free, unsupplemented Click's medium. […]
Monoclonal Antibodies and FACS Analysis—IS-CD8^+ cells were stained with the MT1-MMP (Ab815; Chemicon), CD44 (clone IM7.8.1), CD3 (clone 17A2), and CD49d (clone SG31) monoclonal antibodies (all from BD Biosciences, Rockville, Md.) and the CD29 monoclonal antibody (Chemicon), followed by staining with fluorescein isothiocyanate- or phycoerythrinconjugated secondary antibody (BD Biosciences), and then analyzed on a FACScan flow cytometer (Becton Dickinson, Franklin Lakes, N.J.). […]

[10] = molecular target: T4, MT1-MMP (Mus musculus, UniProt P53690); assay: MT1-MMP-dependent MMP-2 activation in adherent IS-CD8+ cells, gelatin zymography; format: cell-based, NOD mouse; details: Example 1: adherent IS-CD8+ cells on gelatin, 4 h
T4 construct: Endogenous MT1-MMP is latent in non-adherent IS-CD8^+ cells; endogenous in cells; host or cells: IS-CD8+ T cells (TGNFC8 clone, NOD mouse), adherent to gelatin
Procedure: MT1-MMP-dependent MMP-2 Activation and Gelatin Zymography—IS-CD8^+ cells (1×10^6) were either allowed to adhere for 4 h in serum-free unsupplemented Click's medium to plastic coated with 2% gelatin or kept in solution. Under these experimental conditions, the vast majority of cells became attached to gelatin. In 4 h, media samples (30 μl each) were withdrawn and analyzed by gelatin zymography (Deryugina, E. I., et al. (2001)) to identify the proteolytic activity and the activation status of MMP-2 naturally synthesized by IS-CD8^+ cells. Where indicated, cells were supplemented with external purified pro-MMP-2 (20 ng). Pro-MMP-2 was isolated from a conditioned medium of p2AHT2A72 cells derived from an HT1080 fibrosarcoma cell line sequentially transfected with the E1A and MMP-2 cDNAs (Strongin, A. Y., et al. (1995)).
MT1-MMP-dependent MMP-2 activation and gelatin zymography—IS-CD8^+ cells (1×10^6) were either allowed to adhere for 4 h in serum-free unsupplemented Click's medium to the plastic coated with 2% gelatin or kept in solution. In 18 h, media samples (30 μl each) were withdrawn and analyzed by gelatin zymography (Deryugina, E. I., et al. (2001)) to identify the proteolytic activity and the activation status of MMP-2 naturally synthesized by IS-CD8^+ cells. […] Pro-MMP-2 was isolated from a conditioned medium of p2AHT2A72 cells derived from an HT1080 fibrosarcoma cell line sequentially transfected with the E1A and MMP-2 cDNAs (Strongin, A. Y., et al. (1995)).

[11] = tested on: CD44 shedding in IS-CD8+ cells; assay: CD44 shedding in adherent IS-CD8+ cells, Western blotting; format: cell-based, NOD mouse; details: Example 1: adherent IS-CD8+ cells on gelatin
Procedure: Western Blotting—IS-CD8^+ cells were surface biotinylated for 1 h at 4° C. with 0.1 mg/ml sulfo-NHS-LC-biotin (Pierce, Rockford, Ill.). Following washes to remove biotin, cells were co-incubated for 2 h with MT1-MMP-CAT in serum-free, unsupplemented Click's medium. The cells were then lysed with 50 mM N-octyl-β-D-glucopyranoside in phosphate-buffered saline supplemented with 1 mM CaCl2, 1 mM MgCl2, and protease inhibitor mixture containing phenylmethylsulfonyl fluoride (1 mM) and aprotinin, pepstatin, and leupeptin (1 μg/ml each). Biotin-labeled CD44 was captured from the cell lysate and from the medium aliquots on streptavidin-agarose beads. The captured samples were examined by Western blotting with the CD44 (clone IM7.8.1) antibody to determine the released, soluble, CD44 ectodomain in the medium samples and the residual, membrane-anchored, cellular CD44 in the cell lysates.
Western blotting—IS-CD8^+ cells were surface biotinylated for 1 hr at 4° C. with 0.1 mg/ml of sulfo-NES-LC-biotin (Pierce). Following washes to remove biotin, the labeled cells were allowed to adhere in serum-free medium to plastic coated with 2% type I collagen/gelatin for 4 h or were kept in suspension. Under these experimental conditions, the vast majority of the cells became attached to gelatin. […] The cells were then lysed with 50 mM N-octyl-β-D-glucopyranoside in PBS supplemented with 1 mM CaCl2, 1 mM MgCl2, and protease inhibitor cocktail containing phenylmethylsulfonyl fluoride (1 mM) and aprotinin, pepstatin, and leupeptin (1 μg/ml each). Biotin-labeled CD44 was captured from the cell lysate and from the medium aliquots on streptavidine-Agarose beads. The captured samples were examined by Western blotting with the CD44 (clone IM7.8.1) antibody to determine the released, soluble, CD44 ectodomain in the medium samples and the residual, membrane-anchored, cellular CD44 in the cell lysates.

[12] = tested on: MT1-MMP; details: HT1080 fibrosarcoma cell line; cited from earlier work
[13] = molecular target: cell surface-associated CD44 of IS-CD8+ T cells (mouse) (UniProt P15379); assay: cell-based or functional assay
[14] = molecular target: T1, MMP-7; details: read-out: IC50 for MMP-7 inhibition; cited from earlier work
[15] = tested on: α1-antitrypsin

T2 sequence (P14780 94-707, species assumed): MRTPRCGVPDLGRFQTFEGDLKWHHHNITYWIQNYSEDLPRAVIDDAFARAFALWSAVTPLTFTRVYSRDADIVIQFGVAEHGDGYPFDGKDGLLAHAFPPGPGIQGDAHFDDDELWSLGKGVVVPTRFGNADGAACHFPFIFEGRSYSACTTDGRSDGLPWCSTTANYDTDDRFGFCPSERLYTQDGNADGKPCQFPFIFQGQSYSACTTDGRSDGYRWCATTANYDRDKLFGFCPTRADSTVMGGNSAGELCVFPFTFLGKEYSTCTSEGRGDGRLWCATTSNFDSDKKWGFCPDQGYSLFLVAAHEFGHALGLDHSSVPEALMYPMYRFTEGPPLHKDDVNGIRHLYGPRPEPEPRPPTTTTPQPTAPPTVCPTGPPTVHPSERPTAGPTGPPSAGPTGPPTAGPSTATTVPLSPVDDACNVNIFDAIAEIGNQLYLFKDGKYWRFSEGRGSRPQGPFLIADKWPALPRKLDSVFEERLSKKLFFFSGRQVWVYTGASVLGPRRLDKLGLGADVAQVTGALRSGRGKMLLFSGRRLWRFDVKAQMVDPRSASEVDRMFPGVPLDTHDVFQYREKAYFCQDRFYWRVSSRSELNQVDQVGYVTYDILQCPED
Chain of cell surface-associated CD44 of IS-CD8+ T cells (P15379 23-778): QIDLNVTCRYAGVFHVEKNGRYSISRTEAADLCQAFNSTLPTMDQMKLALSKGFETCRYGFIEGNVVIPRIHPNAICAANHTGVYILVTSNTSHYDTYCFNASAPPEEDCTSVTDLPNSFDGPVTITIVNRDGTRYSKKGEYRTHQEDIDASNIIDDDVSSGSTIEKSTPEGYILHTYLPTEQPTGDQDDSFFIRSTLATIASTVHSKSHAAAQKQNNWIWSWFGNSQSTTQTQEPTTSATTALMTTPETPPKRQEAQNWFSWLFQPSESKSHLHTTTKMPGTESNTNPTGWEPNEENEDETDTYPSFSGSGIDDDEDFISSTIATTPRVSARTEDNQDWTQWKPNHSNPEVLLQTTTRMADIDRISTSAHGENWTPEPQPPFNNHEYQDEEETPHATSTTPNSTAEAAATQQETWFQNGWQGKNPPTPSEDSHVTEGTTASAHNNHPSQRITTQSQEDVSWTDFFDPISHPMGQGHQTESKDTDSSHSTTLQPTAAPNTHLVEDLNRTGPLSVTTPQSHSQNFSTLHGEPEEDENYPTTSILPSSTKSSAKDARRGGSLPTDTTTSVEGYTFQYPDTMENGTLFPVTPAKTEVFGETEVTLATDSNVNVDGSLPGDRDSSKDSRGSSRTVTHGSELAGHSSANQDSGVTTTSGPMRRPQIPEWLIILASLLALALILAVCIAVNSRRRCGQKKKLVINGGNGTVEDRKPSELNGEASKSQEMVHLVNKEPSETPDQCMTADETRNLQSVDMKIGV
Chain of cell surface-associated CD44 of IS-CD8+ T cells (mouse) (P15379 23-778): as above

cell surface-associated MT1-MMP of IS-CD8+ T cells
release of CD44 proteolytic fragments into medium, Western blotting [1]: release of the CD44 proteolytic fragments into medium was detected only in adherent IS-CD8^+ cells

CC(C)[C@H](NS(=O)(=O)c1ccc(-c2ccc(Br)cc2)cc1)C(=O)O [PD166793, (S)-2-(4′-bromo-biphenyl-4-sulfonylamino)-3-methyl-butyric acid]
EC50 [2]: 7.2 µM | β cell mass [3]: preserved β cell mass | EC50 [4]: 7.9 µM | EC50 [5]: 0.24 µM

O=C(C[C@H](CSc1ccccc1)C(=O)O)c1ccc(-c2ccc(Cl)cc2)cc1 [BAY 12-9566]
IC50 for MMP-9 inhibition [6]: below 0.13 μg/mL | time to peak plasma concentrations after dosing ([7]; after oral administration): 0.5 to 2 h | linearity of pharmacokinetics ([7]; normal volunteers, doses of up to 100 mg/day): linear | effect of repeated administration on clearance ([7]; repeated administration): increased clearance | IC50 for MMP-2 inhibition [8]: below 0.13 μg/mL

CNC(=O)[C@H](Cc1c[nH]c2ccccc12)NC(=O)[C@@H](CC(=O)NO)CC(C)C [GM6001]
effect on MT1-MMP-CAT cleavage of cellular CD44 [9]: reversed the effect of MT1-MMP-CAT | activation of MMP-2 in adherent cells [10]: blocked | shedding of CD44 in adherent cells [11]: blocked

O=P(O)(O)C(Cl)(Cl)P(=O)(O)O [Clodronate]
expression of MT1-MMP protein and messenger RNA [12]: inhibited

catalytic domain of MT1-MMP (MT1-MMP-CAT) (enzyme)
homing of DiI-labeled IS-CD8+ cells into the pancreatic islets of NOD mice, 24 h [13]: 4.5 fold

CNC(=O)[C@H](Cc1ccccc1)NC(=O)[C@H](CC(C)C)[C@H](CSc1cccs1)C(=O)NO [Batimastat]
IC50 [14]: < 0.0209 µM | IC50 ([6]; read-out: IC50 for MMP-9 inhibition): < 0.0209 µM

MMP-2 (as incubated with α1-antitrypsin)
cleavage of α1-antitrypsin in vitro, reducing SDS-gel electrophoresis [15]: the MMP-2 proteolysis of α1-antitrypsin (a sensitive and readily available protein substrate of MMPs) and converting this 61 kDa serpin into a 55 kDa degradation fragment
